Results taken from US20020028807A1, “Non-nucleoside reverse transcriptase inhibitors” (priority 2000, published 2002).

Experiments:
HIV-1 RT wild-type (WT) = target: T1, HIV-1 RT wild-type (WT) (Human immunodeficiency virus type 1 group M subtype B, UniProt P03366); assay: Reverse transcriptase (RT) assay, wild-type enzyme; assay type: biochemical
T1 construct: an HIV RT clone pKRT2 containing only the RT p66 gene regulated by the lac operon/trc promoter; made in house; host or cells: E. coli JM109, vector pKK233-2

HIV-1 RT K103N/Y181C = target: T2, HIV-1 RT K103N/Y181C (Human immunodeficiency virus type 1 group M subtype B, UniProt P03366, K702N/Y780C); assay: Reverse transcriptase (RT) assay, K103N/Y181C mutant; assay type: biochemical
T2 construct: an HIV RT clone pKRT2 containing only the RT p66 gene regulated by the lac operon/trc promoter; made in house; host or cells: E. coli JM109, vector pKK233-2
Procedure, shortened: (§1)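 Recombinant HIV-1 RT p66/p51 heterodimer mutants were made by site-directed mutagenesis, expressed in E. coli JM109 and purified by hydroxyapatite chromatography. Cell-free activity used a poly r(C) template primed with biotinylated oligo d(G), with incorporation of 3H-dGTP into DNA as read-out.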

HIV-1 RT Y188C = target: T3, HIV-1 RT Y188C (Human immunodeficiency virus type 1 group M subtype B, UniProt P03366, Y787C); assay: Reverse transcriptase (RT) assay, Y188C mutant; assay type: biochemical
T3 construct: an HIV RT clone pKRT2 containing only the RT p66 gene regulated by the lac operon/trc promoter; made in house; host or cells: E. coli JM109, vector pKK233-2
Excerpt: Among the enzymes for which Human Immunodeficiency Virus (HIV-1) encodes is a reverse transcriptase (1), so-named because it transcribes a DNA copy from an RNA template. This activity can be quantitatively measured in a cell-free enzyme assay and is based upon the observation that reverse transcriptase is able to use a synthetic template poly r(C) primed with a biotinylated oligo d(G) to transcribe a radio-labelled DNA strand utilising 3H-dGTP as a substrate. The assay described below utilises the wild-type enzyme (which is the predominant form of the enzyme observed in patients infected with HIV-1) and can also be used with mutant RT enzymes (for example, Y181C, prepared by site-directed mutagenesis in which the tyrosine residue at codon 181 has been replaced by a cysteine residue) in analogous assay conditions. This assay allows compounds to be evaluated for their effectiveness at inhibiting the mutant enzymes.
Some HIV-1 IIIB clone BH10 RT mutants were provided by Dr. C.-K. Shih (Boehringer Ingelheim Pharmaceutials Inc., U.S.A.) in the vector pKK233-2 (Pharmacia). Briefly an HIV RT clone pKRT2 containing only the RT p66 gene regulated by the lac operon/trc promoter was obtained from Dr. W. Summers (Yale University) (2). A variety of specific amino acid substitutions were introduced into the wild-type RT gene by site-directed mutagenesis. RT clones were subcloned into the pKK233-2 bacterial expression vector. Clones provided included wild-type, Val106Ala, Tyr181Cys, Tyr188Cys, Tyr188Leu, Gly190Ala and Pro236Leu. Others were made in-house by site-directed mutagenesis of the pKK233-2 RT clones including Lys103Asn, Lys103Asn/Tyr181Cys, Lys103Asn/Leu100Ile, Lys103Asn/Pro225His, and Lys103Asn/Val108Ile.
Purification of recombinant reverse transcriptase was performed using a combination of methods previously described (3). A single colony from a fresh plate of transformed JM109 cells was used to initiate growth of a pre-culture grown o/n at 37° C. Two liters of growth medium were inoculated with this pre-culture. At OD600˜1.5 (5-6 h at 37° C.), RT gene expression was induced with IPTG (1 mM final), and the fermentation was continued for a few more hours at 37° C. After centrifugation, supernatants were discarded while cell pellets were pooled and stored at −80° C. until purification. Cells were thawed at 4° C. overnight and suspended in lysis buffer (MES 50 mM pH 6, EDTA 1 mM, 10% v/v glyerol, 0.02% w/v OBG, 0.02% w/v sodium azide). Lysozyme was added and the mixture was incubated on ice for 40 minutes. After homogenization using a bounce in presence of lysozyme and sonication, the cells were centrifuged for 30 minutes. Supernatant (S1) was saved and stored at 4° C. The centrifuged pellet was resuspended in extraction buffer (MES 50 mM pH 6, KPO4 50 mM pH 6, KCl 100 mM, 10% v/v glycerol, 0.02% w/v OBG, 0.02% w/v sodium axide) and stirred for 30 minutes at 4° C. This second mixture was centrifuged again and the supernatant (S2) was saved. The above procedure was repeated 2 more times saving supernatants S3 and S4 and one last extraction was performed overnight (S5). Polymin P (0.005% final) was added to the combined supernatants to remove nucleic acids. This solution was stirred for 75 minutes at 4° C. and centrifuged for 1 h. The supernatant (SS1) was precipitated on ice with 20% w/v ammonium sulfate and stirred for 1 h at 4° C. The mixture was then centrifuged and the resulting supernatant (SS2) was precipitated with additional 40% w/v ammonium sulfate (60% total), stirred for 1 h and centrifuged again. The final pellet (P1) was stored overnight at 4° C. before undergoing purification the following day. All steps of the purification were performed at 4° C. unless otherwise stated.
Pellet (P1) was resuspended into MES 50 mM pH 6, KPO4 10 mM pH 6, KCl 100 mM, 10% v/v glycerol, 0.02% w/v OBG, 0.02% w/v sodium azide. The suspension was dialysis against the same buffer overnight using 12-14 kD MWCO dialysis tubing. […]

HIV-1 RT K103N/P225H = target: T4, HIV-1 RT K103N/P225H (Human immunodeficiency virus type 1 group M subtype B, UniProt P03366, K702N/P824H); assay: Reverse transcriptase (RT) assay, K103N/P225H mutant; assay type: biochemical
T4 construct: an HIV RT clone pKRT2 containing only the RT p66 gene regulated by the lac operon/trc promoter; made in house; host or cells: E. coli JM109, vector pKK233-2
Procedure, shortened: as §1

HIV-1 RT K103N = target: T5, HIV-1 RT K103N (Human immunodeficiency virus type 1 group M subtype B, UniProt P03366, K702N); assay: Reverse transcriptase (RT) assay, K103N mutant; assay type: biochemical
T5 construct: an HIV RT clone pKRT2 containing only the RT p66 gene regulated by the lac operon/trc promoter; made in house; host or cells: E. coli JM109, vector pKK233-2
Procedure, shortened: as §1

[1] = system: HIV coding for mutant reverse transcriptase K103N/P225H; assay: ELISA (p24) assay of HIV replication in C8166 cell culture, K103N/P225H virus; assay type: cell-based, HIV-1; conditions: Human immunodeficiency virus 1, C8166, 72 h, read-out: EC50 K103N/P225H
Method: (§2) Compounds of the invention were tested for their ability to inhibit HIV replication in cell culture in a 96-well plate assay. Complete RPMI 1640, consisting of RPMI 1640+10% fetal bovine serum, 10 μg/ml gentamycin and 10 μM β-mercaptoethanol was used for dilution of the compound as well as cell growth medium. The T lymphocyte cell line C8166 was infected at a multiplicity of infection of 0.001 with viruses coding for wild-type and mutant reverse transcriptase. Cells were then incubated for three days in the presence of serial dilutions of the compounds of the invention. The supernatant was pooled from eight replica wells and the concentration of extracellular p24 was determined using a commercially available HIV-1 p24 antigen assay kit (Beckman-Coulter®). The level of inhibition (% inhibition) was calculated with the following equation: [formula]

HIV-1 RT K103N/V108I = target: T6, HIV-1 RT K103N/V108I (Human immunodeficiency virus type 1 group M subtype B, UniProt P03366, K702N/V707I); assay: Reverse transcriptase (RT) assay, K103N/V108I mutant; assay type: biochemical
T6 construct: an HIV RT clone pKRT2 containing only the RT p66 gene regulated by the lac operon/trc promoter; made in house; host or cells: E. coli JM109, vector pKK233-2
Procedure, shortened: as §1

[2] = system: HIV coding for mutant reverse transcriptase Y188L; assay: ELISA (p24) assay of HIV replication in C8166 cell culture, Y188L virus; assay type: cell-based, HIV-1; conditions: Human immunodeficiency virus 1, C8166, 72 h, read-out: EC50 Y188L
Method: as §2

HIV-1 RT Y181C = target: T7, HIV-1 RT Y181C (Human immunodeficiency virus type 1 group M subtype B, UniProt P03366, Y780C); assay: Reverse transcriptase (RT) assay, Y181C mutant; assay type: biochemical
T7 construct: an HIV RT clone pKRT2 containing only the RT p66 gene regulated by the lac operon/trc promoter; made in house; host or cells: E. coli JM109, vector pKK233-2
Procedure, shortened: as §1

CCN1c2ncc(CCOc3cc[n+]([O-])c4ccccc34)cc2C(=O)N(C)c2ccc(F)nc21 [compound 11, 5,11-Dihydro-11-ethyl-2-fluoro-5-methyl-8-{2-{(1-oxido-4-quinolinyl)oxy}-ethyl}-6H-dipyrido[3,2-b:2′,3′-e][1,4]diazepin-6-one]
IC50 (HIV-1 RT wild-type (WT)): 9.5 nM | IC50 (HIV-1 RT K103N/Y181C): 55 nM | IC50 (HIV-1 RT Y188C): 6.6 nM | IC50 (HIV-1 RT K103N/P225H): 15 nM | IC50 (HIV-1 RT K103N): 18 nM | EC50 [1]: 2 nM | IC50 (HIV-1 RT K103N/V108I): 55 nM | EC50 [2]: 52 nM | IC50 (HIV-1 RT Y181C): 27 nM

CCN1c2ncc(CCOc3cc[n+]([O-])c4ccccc34)cc2C(=O)N(C)c2ccc(Cl)nc21 [compound 17, 2-Chloro-5,11-dihydro-11-ethyl-5-methyl-8-{2-{(1-oxido-4-quinolinyl)oxy}-ethyl}-6H-dipyrido[3,2-b:2′,3′-e][1,4]diazepin-6-one]
IC50 (HIV-1 RT wild-type (WT)): 14 nM | IC50 (HIV-1 RT K103N/Y181C): 48 nM | IC50 (HIV-1 RT Y188C): 8.1 nM | IC50 (HIV-1 RT K103N/P225H): 23 nM | IC50 (HIV-1 RT K103N): 25 nM | EC50 [1]: 1.2 nM | IC50 (HIV-1 RT K103N/V108I): 83 nM | EC50 [2]: 58 nM | IC50 (HIV-1 RT Y181C): 29 nM

CCN1c2ncc(CCOc3cc[n+]([O-])c4ccccc34)cc2C(=O)N(C)c2cccnc21 [compound 21, 5,11-Dihydro-11-ethyl-5-methyl-8-{2-{(1-oxido-4-quinolinyl)oxy}ethyl}-6H-dipyrido[3,2-b:2′,3′-e][1,4]diazepin-6-one]
IC50 (HIV-1 RT wild-type (WT)): 17 nM | IC50 (HIV-1 RT K103N/Y181C): 95 nM | IC50 (HIV-1 RT Y188C): 9.9 nM | IC50 (HIV-1 RT K103N/P225H): 40 nM | IC50 (HIV-1 RT K103N): 44 nM | EC50 [1]: 2.9 nM | IC50 (HIV-1 RT K103N/V108I): 120 nM | EC50 [2]: 67 nM | IC50 (HIV-1 RT Y181C): 51 nM
